Columns and labels:
Assay type in all cases: in vivo, Golden Syrian hamster
[1] = test system: genes involved in de novo lipodogenesis, de novo cholesterol synthesis and cholesterol removal; assay: Example 2: messenger RNA expressed in the liver; conditions: liver mRNA at end of study
Experimental: (§1) Male LVG golden Syrian hamsters were used for the studies below. The base feed consisted of the food AO4C sold by the company SAFE diet. In the hypercholesterol diets, cholesterol was added (provided by MP Biomedicals)
(§2) Different cyclodextrins were tested • firstly, hydroxypropyl-β-cyclodextrin (HPBCD) sold by the Applicant under the name “KLEPTOSE® HPB” (oral grade); • secondly, methyl-β-cyclodextrin (MCD) “KLEPTOSE® CRYSMEB”, owned by the Applicant.
(§3) In this study, 40 Golden Syrian origin LVG hamsters were divided into 4 groups of 10 and subjected for 6 weeks to the following diets: • “Control” group: normal diet • “Control HC” group: hypercholesterol diet (containing 2.5% by weight of cholesterol) • “HC+Crysmeb” group: hypercholesterol diet (containing 2.5% by weight of cholesterol)+3% by weight of Crysmeb (MCD) • “HC+HPBCD” group: hypercholesterol diet (containing 2.5% by weight of cholesterol)+3% by weight of HPBCD.
The levels of expression of different genes involved in de novo lipodogenesis (FIG. 3) and in de novo cholesterol synthesis (FIG. 5) and cholesterol removal (FIG. 6) were measured in the liver at the end of the study, in the 4 groups of animals.

[2] = Example 2 preventive effect model: body weight and organ weights; conditions: hypercholesterol diet (2.5% cholesterol) + 3% by weight cyclodextrin in feed, end of 42 days, N=10
Experimental: as §1, §2, §3
At the end of 42 days of study, the animals were sacrificed and the weight of the various organs was measured.

[3] = Example 2 preventive effect model: plasma triglyceride levels
Experimental: as §1, §2, §3

[4] = test system: Golden Syrian origin LVG hamsters; assay: Example 2 preventive effect model: biochemical data measured in the liver (lipid storage); conditions: end of the 42 days of treatment, HC diet + 3% cyclodextrin
Experimental: as §1, §2, §3
Table 3 provides the biochemical data measured in the liver of the animals at the end of the 42 days of treatment.

CC(O)COC[C@H]1O[C@@H]2O[C@H]3[C@H](O)[C@@H](O)[C@@H](O[C@H]4[C@H](O)[C@@H](O)[C@@H](O[C@H]5[C@H](O)[C@@H](O)[C@@H](O[C@H]6[C@H](O)[C@@H](O)[C@@H](O[C@H]7[C@H](O)[C@@H](O)[C@@H](O[C@H]8[C@H](O)[C@@H](O)[C@@H](O[C@H]1[C@H](O)[C@H]2O)O[C@@H]8COCC(C)O)O[C@@H]7COCC(C)O)O[C@@H]6COCC(C)O)O[C@@H]5COCC(C)O)O[C@@H]4COCC(C)O)O[C@@H]3COCC(C)O (stereo partly drawn) [HPBCD, hydroxypropyl-β-cyclodextrin]
expression of genes involved in de novo lipogenesis (FAS, ACC, SCD1, SREBP1) ([1]; FIG. 3): inhibition of the expression of the SCD1 and ACC genes
expression of genes involved in de novo cholesterol synthesis (SREB2, CYP51a1, HMGCR) ([1]; FIG. 5): little effect
weight of the adipose tissue of epididymis (Average) [2]: 1.4
weight of the liver (Average) [2]: 4.5
plasma triglyceride level TG D0 (Average) ([3]; day 0 (beginning of study), HC diet + 3% cyclodextrin): 3.03
plasma triglyceride level TG D14 (Average) ([3]; day 14, HC diet + 3% cyclodextrin): 1.28
plasma triglyceride level TG D28 (Average) ([3]; day 28, HC diet + 3% cyclodextrin): 1.23
plasma triglyceride level TG D43 (Average) ([3]; day 43 (end of study), HC diet + 3% cyclodextrin): 1.58
% lipids (g of lipid in liver/animal) (Average) [4]: 1.04 g of lipid in liver/animal
% lipids (g/100 g of liver) D0 (Average) [4]: 23.02 g/100 g of liver
CHOL (mg of chol in liver/animal) (Average) [4]: 154.19 mg of chol in liver/animal
CHOL (mg/g liver) (Average) [4]: 32.98 mg/g liver
TG (mg of TG in liver/animal) (Average) [4]: 92.12 mg of TG in liver/animal
TG (mg/g liver) (Average) [4]: 22.73 mg/g liver
